Laboratory results reported in US10301280B2 (Plexxikon Inc., priority 2012, dated 2019).
pIC50: −log10 of the molar value.

Test system: BaF3-FL KIT D816V or BaF3-FL KIT V560G/D816V cell line
Experiment: Cell-based assays of c-Kit mutant kinase activity (cell growth, ATPlite)
Conditions: at least one of the c-kit cell assays of Example 26
How it was run: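 BaF3 cells dependent on full-length human KIT (D816V or V560G/D816V) seeded at 1×10^4 cells/well in RPMI with 10% FBS. Eight-point 1:3 dilutions from 10 μM top final (0.2% DMSO), 3 days at 37° C., 5% CO2. ATPlite luminescence gave IC50.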

| Compound | pIC50 |
| --- | --- |
| COc1ncccc1-c1cc2cc(NC(=O)c3n[nH]c(C)c3C)cnc2[nH]1 [P-2238, N-(2-(2-methoxypyridin-3-yl)-1H-pyrrolo[2,3-b]pyridin-5-yl)-4,5-dimethyl-1H-pyrazole-3-carboxamide] | > 5.00 |
| Cc1c(C(=O)Nc2cnc3[nH]c(-c4ccccc4)cc3c2)n[nH]c1C(F)(F)F [P-2231, 4-methyl-N-(2-phenyl-1H-pyrrolo[2,3-b]pyridin-5-yl)-5-(trifluoromethyl)-1H-pyrazole-3-carboxamide] | > 5.00 |
| COc1cc(-c2cc3cc(NC(=O)c4[nH]nc(C)c4C)cnc3[nH]2)ccn1 [P-2109, N-[2-(2-methoxy-4-pyridyl)-1H-pyrrolo[2,3-b]pyridin-5-yl]-3,4-dimethyl-1H-pyrazole-5-carboxamide] | > 5.00 |
| Cc1[nH]nc(C(=O)Nc2cnc3[nH]c(-c4ccnc(N5CCCC(O)C5)c4)cc3c2)c1C (stereo not shown) [P-2213, N-(2-(2-(3-hydroxypiperidin-1-yl)pyridin-4-yl)-1H-pyrrolo[2,3-b]pyridin-5-yl)-4,5-dimethyl-1H-pyrazole-3-carboxamide] | > 5.00 |
| Cc1[nH]nc(C(=O)Nc2cnc3[nH]c(-c4ccnc(OC(C)C)c4)cc3c2)c1C [P-2248, N-(2-(2-isopropoxypyridin-4-yl)-1H-pyrrolo[2,3-b]pyridin-5-yl)-4,5-dimethyl-1H-pyrazole-3-carboxamide] | > 5.00 |
| Cc1[nH]nc(C(=O)Nc2cnc3[nH]c(-c4ccncc4Cl)cc3c2)c1C [P-2250, N-(2-(3-chloropyridin-4-yl)-1H-pyrrolo[2,3-b]pyridin-5-yl)-4,5-dimethyl-1H-pyrazole-3-carboxamide] | > 5.00 |
| Cc1[nH]nc(C(=O)Nc2cnc3[nH]c(-c4ccnc(C5CCNCC5)c4)cc3c2)c1C [P-2211, 4,5-dimethyl-N-(2-(2-(piperidin-4-yl)pyridin-4-yl)-1H-pyrrolo[2,3-b]pyridin-5-yl)-1H-pyrazole-3-carboxamide] | > 5.00 |
| O=C(Nc1cnc2[nH]c(-c3ccccc3)cc2c1)c1cccnn1 [P-2014, N-(2-phenyl-1H-pyrrolo[2,3-b]pyridin-5-yl)pyridazine-3-carboxamide] | > 5.00 |
| CC(=O)N1CCC(n2cc(-c3cc4cc(NC(=O)c5n[nH]c(C)c5C)cnc4[nH]3)c(C)n2)CC1 [P-2202, N-(2-(1-(1-acetylpiperidin-4-yl)-3-methyl-1H-pyrazol-4-yl)-1H-pyrrolo[2,3-b]pyridin-5-yl)-4,5-dimethyl-1H-pyrazole-3-carboxamide] | > 5.00 |
| COCCCOc1ccc(-c2cc3cc(NC(=O)c4[nH]nc(C)c4C)cnc3[nH]2)cc1 [P-2102, N-[2-[4-(3-methoxypropoxy)phenyl]-1H-pyrrolo[2,3-b]pyridin-5-yl]-3,4-dimethyl-1H-pyrazole-5-carboxamide] | > 5.00 |
| COc1ccc(-c2cc3cc(NC(=O)c4[nH]nc(C)c4C)cnc3[nH]2)cc1 [P-2099, N-[2-(4-methoxyphenyl)-1H-pyrrolo[2,3-b]pyridin-5-yl]-3,4-dimethyl-1H-pyrazole-5-carboxamide] | > 5.00 |
| Cc1n[nH]c(C(=O)Nc2cnc3[nH]c(-c4ccncc4)cc3c2)c1C [P-2124, 3,4-dimethyl-N-[2-(4-pyridyl)-1H-pyrrolo[2,3-b]pyridin-5-yl]-1H-pyrazole-5-carboxamide] | > 5.00 |
| O=C(Nc1cnc2[nH]c(-c3ccccc3)cc2c1)c1cccc2[nH]ccc12 [P-2299, N-(2-phenyl-1H-pyrrolo[2,3-b]pyridin-5-yl)-1H-indole-4-carboxamide] | > 5.00 |
| Cc1n[nH]c(C(=O)Nc2cnc3[nH]c(-c4ccc(F)cc4)cc3c2)n1 [P-2131, N-[2-(4-fluorophenyl)-1H-pyrrolo[2,3-b]pyridin-5-yl]-3-methyl-1H-1,2,4-triazole-5-carboxamide] | > 5.00 |
| Cc1n[nH]c(C(=O)Nc2cnc3[nH]c(-c4cccc(F)c4)cc3c2)c1C [P-2094, N-[2-(3-fluorophenyl)-1H-pyrrolo[2,3-b]pyridin-5-yl]-3,4-dimethyl-1H-pyrazole-5-carboxamide] | > 5.00 |
| COc1ccc(-c2cc3cc(NC(=O)c4[nH]nc(C)c4C)cnc3[nH]2)cn1 [P-2090, N-[2-(6-methoxy-3-pyridyl)-1H-pyrrolo[2,3-b]pyridin-5-yl]-3,4-dimethyl-1H-pyrazole-5-carboxamide] | > 5.00 |
| OC(c1cccnc1)c1cnc2[nH]c(-c3ccccc3)cc2c1 (stereo not shown) [P-2001, (2-phenyl-1H-pyrrolo[2,3-b]pyridin-5-yl)-(3-pyridyl)methanol] | > 5.00 |
| Cc1cc(-c2cc3cc(NC(=O)c4n[nH]c(C)c4C)cnc3[nH]2)cnc1C [P-2244, N-(2-(5,6-dimethylpyridin-3-yl)-H-pyrrolo[2,3-b]pyridin-5-yl)-4,5-dimethyl-1H-pyrazole-3-carboxamide] | > 5.00 |
| Cc1[nH]nc(C(=O)Nc2cnc3[nH]cc(-c4cccc(N5CCOCC5)n4)c3c2)c1C [P-2192, 4,5-dimethyl-N-(3-(6-morpholinopyridin-2-yl)-1H-pyrrolo[2,3-b]pyridin-5-yl)-1H-pyrazole-3-carboxamide] | > 5.00 |

| Compound | pIC50 |
| --- | --- |
| Cc1n[nH]c(C(=O)Nc2cnc3[nH]c(-c4ccnc(N5CCOCC5)c4F)cc3c2)c1C [P-2082, N-[2-(3-fluoro-2-morpholino-4-pyridyl)-1H-pyrrolo[2,3-b]pyridin-5-yl]-3,4-dimethyl-1H-pyrazole-5-carboxamide] | > 5.00 |
| O=C(O)c1ccc(C(=O)Nc2cnc3[nH]c(-c4ccccc4)cc3c2)cc1 [P-2303, 4-[(2-phenyl-1H-pyrrolo[2,3-b]pyridin-5-yl)carbamoyl]benzoic acid] | > 5.00 |
| O=C(Nc1cnc2[nH]c(-c3ccccc3)cc2c1)c1n[nH]c(Cl)c1C(F)F [P-2236, 5-chloro-4-(difluoromethyl)-N-(2-phenyl-1H-pyrrolo[2,3-b]pyridin-5-yl)-1H-pyrazole-3-carboxamide] | > 5.00 |
| Cc1n[nH]c(C(=O)Nc2cnc3[nH]c(-c4cccc(OC(F)(F)F)c4)cc3c2)c1C [P-2086, 3,4-dimethyl-N-[2-[3-(trifluoromethoxy)phenyl]-1H-pyrrolo[2,3-b]pyridin-5-yl]-1H-pyrazole-5-carboxamide] | > 5.00 |
| Cc1[nH]nc(C(=O)Nc2cnc3[nH]c(-c4cnn(C5CCNCC5)c4C)cc3c2)c1C [P-2198, 4,5-dimethyl-N-(2-(5-methyl-1-(piperidin-4-yl)-1H-pyrazol-4-yl)-1H-pyrrolo[2,3-b]pyridin-5-yl)-1H-pyrazole-3-carboxamide] | > 5.00 |
| Cc1[nH]nc(C(=O)Nc2cnc3[nH]c(-c4ccnc(NC5CC5)c4)cc3c2)c1C [P-2204, N-(2-(2-(cyclopropylamino)pyridin-4-yl)-1H-pyrrolo[2,3-b]pyridin-5-yl)-4,5-dimethyl-1H-pyrazole-3-carboxamide] | > 5.00 |
| Cc1[nH]nc(C(=O)Nc2cnc3[nH]c(-c4ccc(F)c(C)c4C)cc3c2)c1C [P-2262, N-(2-(4-fluoro-2,3-dimethylphenyl)-1H-pyrrolo[2,3-b]pyridin-5-yl)-4,5-dimethyl-1H-pyrazole-3-carboxamide] | > 5.00 |
| O=C(Nc1cc[nH]n1)c1cnc2[nH]c(-c3ccccc3)cc2c1 [P-2004, 2-phenyl-N-(1H-pyrazol-3-yl)-1H-pyrrolo[2,3-b]pyridine-5-carboxamide] | > 5.00 |
| CCc1n[nH]c(C(=O)Nc2cnc3[nH]c(-c4ccc(F)cc4)cc3c2)c1C [P-2028, 3-ethyl-N-[2-(4-fluorophenyl)-1H-pyrrolo[2,3-b]pyridin-5-yl]-4-methyl-1H-pyrazole-5-carboxamide] | > 5.00 |
| Cc1[nH]nc(C(=O)Nc2cnc3[nH]c(-c4ccnc(C(=O)NCCC#N)c4)cc3c2)c1C [P-2227, N-(2-cyanoethyl)-4-(5-(4,5-dimethyl-1H-pyrazole-3-carboxamido)-1H-pyrrolo[2,3-b]pyridin-2-yl)picolinamide] | > 5.00 |
| Cc1n[nH]c(C(=O)Nc2cnc3[nH]c(-c4cccc(C(=O)N5CCOCC5)c4)cc3c2)c1C [P-2106, 3,4-dimethyl-N-[2-[3-(morpholine-4-carbonyl)phenyl]-1H-pyrrolo[2,3-b]pyridin-5-yl]-1H-pyrazole-5-carboxamide] | > 5.00 |
| Cc1ccccc1-c1cc2cc(NC(=O)c3[nH]nc(C)c3C)cnc2[nH]1 [P-2097, 3,4-dimethyl-N-[2-(o-tolyl)-1H-pyrrolo[2,3-b]pyridin-5-yl]-1H-pyrazole-5-carboxamide] | > 5.00 |
| Cc1[nH]nc(C(=O)Nc2cnc3[nH]c(-c4cncc(C(F)(F)F)c4)cc3c2)c1C [P-2254, 4,5-dimethyl-N-(2-(5-(trifluoromethyl)pyridin-3-yl)-1H-pyrrolo[2,3-b]pyridin-5-yl)-1H-pyrazole-3-carboxamide] | > 5.00 |
| Cc1[nH]nc(C(=O)Nc2cnc3[nH]c(-c4ccnc(NC(=O)C5CC5)c4Cl)cc3c2)c1C [P-2205, N-(2-(3-chloro-2-(cyclopropanecarboxamido)pyridin-4-yl)-1H-pyrrolo[2,3-b]pyridin-5-yl)-4,5-dimethyl-1H-pyrazole-3-carboxamide] | > 5.00 |
| Cc1cc(F)ccc1-c1cc2cc(NC(=O)c3n[nH]c(C)c3C)cnc2[nH]1 [P-2259, N-(2-(4-fluoro-2-methylphenyl)-1H-pyrrolo[2,3-b]pyridin-5-yl)-4,5-dimethyl-1H-pyrazole-3-carboxamide] | > 5.00 |
| O=C(Nc1cnc2[nH]c(-c3ccccc3)cc2c1)c1n[nH]c(C(F)F)c1Cl [P-2237, 4-chloro-5-(difluoromethyl)-N-(2-phenyl-1H-pyrrolo[2,3-b]pyridin-5-yl)-1H-pyrazole-3-carboxamide] | > 5.00 |
| Cc1cc(-c2cc3cc(NC(=O)c4n[nH]c(C)c4C)cnc3[nH]2)ccn1 [P-2246, 4,5-dimethyl-N-(2-(2-methylpyridin-4-yl)-1H-pyrrolo[2,3-b]pyridin-5-yl)-1H-pyrazole-3-carboxamide] | > 5.00 |
| O=C(Nc1cnc2[nH]c(-c3ccccc3)cc2c1)c1cccc2[nH]cnc12 [P-2300, N-(2-phenyl-1H-pyrrolo[2,3-b]pyridin-5-yl)-1H-benzimidazole-4-carboxamide] | > 5.00 |
